pKi: −log10 of the molar value.
Legend:
Carbonic anhydrase 14 = Carbonic anhydrase 14 (Homo sapiens, UniProt Q9ULX7)
Carbonic anhydrase 12 = Carbonic anhydrase 12 (Homo sapiens, UniProt O43570)
Sequence of Carbonic anhydrase 12 (O43570 whole entry): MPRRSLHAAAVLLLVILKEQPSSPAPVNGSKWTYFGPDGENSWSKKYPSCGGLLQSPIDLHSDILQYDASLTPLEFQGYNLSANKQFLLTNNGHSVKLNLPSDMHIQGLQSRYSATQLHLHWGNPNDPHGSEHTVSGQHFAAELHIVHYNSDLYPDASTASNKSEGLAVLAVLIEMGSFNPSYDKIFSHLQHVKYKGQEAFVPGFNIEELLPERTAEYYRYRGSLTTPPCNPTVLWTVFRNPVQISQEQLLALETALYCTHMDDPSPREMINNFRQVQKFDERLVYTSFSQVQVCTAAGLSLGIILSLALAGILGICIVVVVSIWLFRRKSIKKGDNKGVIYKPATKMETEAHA

Sequence of Carbonic anhydrase 14 (Q9ULX7 whole entry): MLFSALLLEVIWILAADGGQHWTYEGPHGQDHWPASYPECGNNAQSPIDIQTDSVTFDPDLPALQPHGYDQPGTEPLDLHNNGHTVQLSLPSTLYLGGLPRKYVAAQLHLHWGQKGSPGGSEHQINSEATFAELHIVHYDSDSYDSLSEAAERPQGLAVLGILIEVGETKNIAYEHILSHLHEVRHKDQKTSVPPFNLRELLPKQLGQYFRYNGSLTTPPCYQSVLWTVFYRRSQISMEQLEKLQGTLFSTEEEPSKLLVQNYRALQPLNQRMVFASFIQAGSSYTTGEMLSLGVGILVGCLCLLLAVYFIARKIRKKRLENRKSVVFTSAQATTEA

pKi (Carbonic anhydrase 14) | pKi (Carbonic anhydrase 12) | Compound
7.82 |  | Nc1ccc(S(N)(=O)=O)cc1Br
7.05 |  | Nc1nccc(Nc2ccc(S(N)(=O)=O)cc2)n1
5.49 |  | NS(=O)(=O)c1ccc(CCO)cc1
7.89 |  | Nc1ccc(S(=O)(=O)Nc2nnc(S(N)(=O)=O)s2)cc1
5.32 | 6.90 | Nc1cccc(S(N)(=O)=O)c1
5.42 |  | NS(=O)(=O)c1ccc(CO)cc1
6.55 |  | Nc1nnc(S(N)(=O)=O)s1
7.12 |  | Nc1ccc(S(=O)(=O)NCCc2ccc(S(N)(=O)=O)cc2)cc1
6.11 |  | NS(=O)(=O)c1ccc(C(=O)O)cc1 [CARZENIDE]
7.68 |  | Nc1ccc(S(N)(=O)=O)cc1Cl
5.84 | 7.96 | NNc1ccc(S(N)(=O)=O)cc1
5.27 |  | Nc1ccc(S(N)(=O)=O)cc1 [SULFANILAMIDE]
6.74 |  | Nc1ccc(S(N)(=O)=O)cc1F
5.49 |  | NCc1ccc(S(N)(=O)=O)cc1 [MAFENIDE]
6.61 |  | Cn1nc(S(N)(=O)=O)sc1=N
5.19 | 7.07 | Nc1ccccc1S(N)(=O)=O
7.62 |  | CCN[C@H]1CN(CCCOC)S(=O)(=O)c2sc(S(N)(=O)=O)cc21 [BRINZOLAMIDE]

— ChEMBL document CHEMBL1142790, “Carbonic anhydrase inhibitors: inhibition of the transmembrane isozyme XIV with sulfonamides” (Bioorg Med Chem Lett, 2005)
